According to ChEMBL document CHEMBL4052685, “Design, synthesis and tumor cell growth inhibitory activity of 3-nitro-2H-cheromene derivatives as histone deacetylaes inhibitors” (Bioorg Med Chem, 2017):

Key:
MCF7 = experiment: Antiproliferative activity against human MCF7 cells after 48 hrs by MTT assay; format: functional
K562 = experiment: Antiproliferative activity against human K562 cells after 48 hrs by MTT assay; format: functional
Histone deacetylase 2 [1] = molecular target: T1, Histone deacetylase 2 (Homo sapiens, UniProt Q92769); details: at 10 µM
T1 sequence (Q92769 whole entry): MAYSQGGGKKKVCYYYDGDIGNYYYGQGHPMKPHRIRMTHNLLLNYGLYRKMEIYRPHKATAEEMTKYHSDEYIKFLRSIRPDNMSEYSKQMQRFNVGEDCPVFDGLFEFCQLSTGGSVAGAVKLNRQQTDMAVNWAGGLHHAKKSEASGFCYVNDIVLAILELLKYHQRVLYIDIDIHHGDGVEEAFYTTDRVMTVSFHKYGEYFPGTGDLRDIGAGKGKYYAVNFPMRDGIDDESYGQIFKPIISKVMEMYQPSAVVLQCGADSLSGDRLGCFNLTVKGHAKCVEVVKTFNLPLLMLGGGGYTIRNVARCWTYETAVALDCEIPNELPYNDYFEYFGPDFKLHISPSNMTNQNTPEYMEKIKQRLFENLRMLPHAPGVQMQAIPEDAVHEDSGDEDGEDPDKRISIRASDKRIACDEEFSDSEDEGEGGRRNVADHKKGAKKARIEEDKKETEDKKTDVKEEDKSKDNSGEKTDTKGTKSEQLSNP
Description: Inhibition of HDAC2 (unknown origin) at 10 uM using Ac-Leu-GlyLys(Ac)-AMC as substrate preincubated for 10 mins followed by substrate addition measured after 30 mins by fluorescence analysis

PC-3 = experiment: Antiproliferative activity against human PC3 cells after 48 hrs by MTT assay; format: functional
Histone deacetylase 2 [2] = molecular target: T1, Histone deacetylase 2; experiment: Inhibition of HDAC2 (unknown origin) using Ac-Leu-GlyLys(Ac)-AMC as substrate preincubated for 10 mins followed by substrate addition measured after 30 mins by fluorescence analysis
A549 = experiment: Antiproliferative activity against human A549 cells after 48 hrs by MTT assay; format: functional
HeLa = experiment: Antiproliferative activity against human HeLa cells after 48 hrs by MTT assay; format: functional
Histone deacetylase 1 = Histone deacetylase 1 (Homo sapiens, UniProt Q13547); experiment: Inhibition of HDAC1 (unknown origin) using Ac-Leu-GlyLys(Ac)-AMC as substrate preincubated for 10 mins followed by substrate addition measured after 30 mins by fluorescence analysis
Chain of Histone deacetylase 1 (Q13547 whole entry): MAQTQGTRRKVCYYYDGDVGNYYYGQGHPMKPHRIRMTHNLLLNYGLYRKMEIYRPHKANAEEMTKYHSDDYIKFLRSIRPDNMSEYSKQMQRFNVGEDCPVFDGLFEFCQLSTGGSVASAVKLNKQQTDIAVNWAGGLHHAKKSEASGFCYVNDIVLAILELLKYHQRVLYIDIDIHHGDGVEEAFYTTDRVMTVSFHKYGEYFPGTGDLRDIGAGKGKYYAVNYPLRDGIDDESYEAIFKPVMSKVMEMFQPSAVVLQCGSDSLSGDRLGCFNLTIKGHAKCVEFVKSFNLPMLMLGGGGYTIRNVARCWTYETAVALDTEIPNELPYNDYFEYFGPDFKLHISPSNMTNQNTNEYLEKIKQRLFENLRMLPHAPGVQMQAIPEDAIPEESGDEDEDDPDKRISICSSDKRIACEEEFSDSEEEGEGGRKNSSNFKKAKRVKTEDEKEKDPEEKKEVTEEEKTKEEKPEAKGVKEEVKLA

| GI50 (MCF7; Homo sapiens, MCF7, 48 h) | GI50 (K562; Homo sapiens, K562, 48 h) | inhibition (Histone deacetylase 2 [1]) | GI50 (PC-3; Homo sapiens, PC-3, 48 h) | IC50 (Histone deacetylase 2 [2]) | GI50 (A549; Homo sapiens, A549, 48 h) | GI50 (HeLa; Homo sapiens, HeLa, 48 h) | IC50 (Histone deacetylase 1) | GI50 (MCF7) | GI50 (K562) | GI50 (PC-3) | GI50 (A549) | GI50 (HeLa) | SMILES |
| --- | --- | --- | --- | --- | --- | --- | --- | --- | --- | --- | --- | --- | --- |
| 9.37 µM | 2 µM | 72% | 10.7 µM | 0.827 µM | 5.4 µM | 16.2 µM | 0.179 µM | – | – | – | – | – | CCOc1cc(NC(=O)CCCCCCC(=O)Nc2cc(-c3ccccc3)ccc2N)cc2c1OCC([N+](=O)[O-])=C2 |
| 5.33 µM | 3.11 µM | 55% | 6.36 µM | – | 5.83 µM | > 20 µM | – | – | – | – | – | – | CCOc1cc(NC(=O)CCCCCCC(=O)Nc2cc(-c3ccc(C)s3)ccc2N)cc2c1OCC([N+](=O)[O-])=C2 |
| – | – | – | – | – | – | – | – | 17.9 µM | 3.66 µM | 18.8 µM | 19.4 µM | 19.2 µM | O=C(CCCCCCC(=O)Nc1ccccc1)NO [VORINOSTAT] |
| 19.4 µM | 3.96 µM | 96% | > 20 µM | 0.759 µM | 12.2 µM | 14.9 µM | 0.288 µM | – | – | – | – | – | CCOc1cc(NC(=O)CCCCCC(=O)Nc2ccccc2N)cc2c1OCC([N+](=O)[O-])=C2 |
| 7.03 µM | 3.21 µM | 81% | 7.08 µM | 0.659 µM | 4.86 µM | 19.8 µM | 0.128 µM | – | – | – | – | – | CCOc1cc(NC(=O)CCCCCC(=O)Nc2cc(-c3ccccc3)ccc2N)cc2c1OCC([N+](=O)[O-])=C2 |
| 19.1 µM | 4.12 µM | 8% | 10.9 µM | – | 18.2 µM | > 20 µM | – | – | – | – | – | – | CCOc1cc(NC(=O)CCCCCCC(=O)NCCc2ccccc2)cc2c1OCC([N+](=O)[O-])=C2 |
| > 20 µM | 2.92 µM | 62% | 11.4 µM | 1.79 µM | 5.07 µM | > 20 µM | 0.366 µM | – | – | – | – | – | CCOc1cc(NC(=O)CCCCCC(=O)Nc2cc(-c3ccc(C)s3)ccc2N)cc2c1OCC([N+](=O)[O-])=C2 |
| 13.5 µM | 3.36 µM | 93% | 8.63 µM | 0.439 µM | 11.7 µM | > 20 µM | 0.232 µM | – | – | – | – | – | CCOc1cc(NC(=O)CCCCCCC(=O)Nc2ccccc2N)cc2c1OCC([N+](=O)[O-])=C2 |
| 4.17 µM | 1.53 µM | 0% | 13.2 µM | – | 4.8 µM | 5.8 µM | – | – | – | – | – | – | CCOc1cc(NC(=O)CCCCCNC(=O)Cc2ccccc2)cc2c1OCC([N+](=O)[O-])=C2 |
| 19.9 µM | 5.27 µM | 59% | 14.6 µM | – | 7.46 µM | > 20 µM | – | – | – | – | – | – | CCOc1cc(NC(=O)CCCCC(=O)Nc2cc(-c3ccccc3)ccc2N)cc2c1OCC([N+](=O)[O-])=C2 |
| 8.72 µM | 3.56 µM | 90% | 11.2 µM | 2.91 µM | 5.95 µM | > 20 µM | 0.742 µM | – | – | – | – | – | CCOc1cc(NC(=O)CCCCNC(=O)[C@H](N)Cc2ccccc2)cc2c1OCC([N+](=O)[O-])=C2 |
| – | – | – | – | 1.29 µM | – | – | 0.448 µM | – | – | – | – | – | CCOc1cc(NC(=O)CCCCCNC(=O)[C@H](N)Cc2ccccc2)cc2c1OCC([N+](=O)[O-])=C2 |
| 2.82 µM | 2.9 µM | 3% | 6.46 µM | – | 6.42 µM | 9.33 µM | – | – | – | – | – | – | CCOc1cc(NC(=O)CCCCC(=O)NCCc2ccccc2)cc2c1OCC([N+](=O)[O-])=C2 |
| 7.91 µM | 2.94 µM | 32% | 13.5 µM | – | 13.8 µM | 18.4 µM | – | – | – | – | – | – | CCOc1cc(NC(=O)CCCCC(=O)Nc2cc(-c3ccc(C)s3)ccc2N)cc2c1OCC([N+](=O)[O-])=C2 |
| 6.12 µM | 3.47 µM | 0% | 7.09 µM | – | 5.32 µM | 6.08 µM | – | – | – | – | – | – | CCOc1cc(NC(=O)CCCCCC(=O)NCCc2ccccc2)cc2c1OCC([N+](=O)[O-])=C2 |
| 17.3 µM | 3.68 µM | 91% | 18.9 µM | – | 9.63 µM | 13.1 µM | – | – | – | – | – | – | CCOc1cc(NC(=O)CCCCC(=O)Nc2ccccc2N)cc2c1OCC([N+](=O)[O-])=C2 |
| 5.96 µM | 3.32 µM | 8% | 7.17 µM | – | 5.23 µM | 6.74 µM | – | – | – | – | – | – | CCOc1cc(NC(=O)CCCCCNC(=O)CCCc2ccccc2)cc2c1OCC([N+](=O)[O-])=C2 |
| 19.3 µM | 9.32 µM | 98% | 19.1 µM | – | 18.4 µM | 19.2 µM | – | – | – | – | – | – | Nc1ccccc1NC(=O)c1ccc(CNC(=O)OCc2cccnc2)cc1 [ENTINOSTAT] |
